Measured values: patent US11000033B2, “Ketone or oxime compound, and herbicide” (NISSAN CHEMICAL CORPORATION, priority 2014, dated 2021)

Key:
Type in all cases: in vivo
[1] = tested on: Stellaria media; assay: Test Example 5: herbicidal effect by foliage application, plastic box (symbol P); details: 320 g/ha, 3 weeks after application
Summary of the method: (§1)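 Sowing in sterilized diluvial soil, 14 days' greenhouse growth at 25° C. to 30° C., then uniform small-sprayer foliar application of aqueous emulsion dilution; plants scored three weeks afterwards.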

[2] = tested on: Galium spurium; assay: Test Example 5: herbicidal effect by foliage application, plastic box (symbol Q); details: 320 g/ha, 3 weeks after application
Summary of the method: as §1

[3] = tested on: beet; assay: Test Example 5: effect on crop by foliage application, plastic box (symbol f); details: 320 g/ha, 3 weeks after application
Summary of the method: (§2)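 Crop seed is sown alongside grass and broadleaf weed species in spots in sterilized diluvial soil, then covered to a depth of about 1.5 cm. Plants grow in a greenhouse kept at 25° C. to 30° C.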

[4] = tested on: rice; assay: Test Example 4: effect on crop by soil treatment (symbol b); details: 320 g/ha
Summary of the method: (§3)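 Grown at 25° C. to 30° C. in a greenhouse, the crops came from seed sown spot-wise in sterilized diluvial soil under roughly 1.5 cm of covering soil.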

[5] = tested on: rice plant; assay: Test Example 5: effect on crop by foliage application, plastic box (symbol b); details: 320 g/ha, 3 weeks after application
Summary of the method: as §2

[6] = tested on: corn; assay: Test Example 4: effect on crop by soil treatment (symbol c); details: 320 g/ha
Summary of the method: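 The test used sterilized diluvial soil. Seed was set down in spots and overlaid with about 1.5 cm of soil before growth in a greenhouse kept at 25° C. to 30° C.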

[7] = tested on: soybean; assay: Test Example 4: effect on crop by soil treatment (symbol d); details: 320 g/ha
Summary of the method: as §3

[8] = tested on: Veronica persica; assay: Test Example 4: herbicidal effect by soil treatment (symbol R); details: 320 g/ha
Summary of the method: (§4)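 Seeds were sown in sterilized diluvial soil, covered with about 1.5 cm of soil, and the soil surface was sprayed with a water-diluted emulsion of the compound at a predetermined rate. Plants grew in a greenhouse at 25° C. to 30° C.; effects were scored visually 3 weeks after application.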

[9] = tested on: Avena fatua; assay: Test Example 5: herbicidal effect by foliage application, plastic box (symbol I); details: 320 g/ha, 3 weeks after application
Summary of the method: as §1

[10] = tested on: Echinochloa crus-galli var. crus-galli; assay: Test Example 4: herbicidal effect by soil treatment (symbol H); details: 320 g/ha
Summary of the method: as §4

[11] = tested on: Chenopodium album; assay: Test Example 5: herbicidal effect by foliage application, plastic box (symbol O); details: 320 g/ha, 3 weeks after application
Summary of the method: as §1

[12] = tested on: beet; assay: Test Example 4: effect on crop by soil treatment (symbol f); details: 320 g/ha
Summary of the method: as §3

[13] = tested on: Digitaria ciliaris; assay: Test Example 5: herbicidal effect by foliage application, plastic box (symbol F); details: 320 g/ha, 3 weeks after application
Summary of the method: as §1

[14] = tested on: rapeseed; assay: Test Example 4: effect on crop by soil treatment (symbol g); details: 320 g/ha
Summary of the method: as §3

[15] = tested on: Apera spica-venti; assay: Test Example 5: herbicidal effect by foliage application, plastic box (symbol L); details: 320 g/ha, 3 weeks after application
Summary of the method: as §1

[16] = tested on: Setaria viridis; assay: Test Example 5: herbicidal effect by foliage application, plastic box (symbol G); details: 320 g/ha, 3 weeks after application
Summary of the method: as §1

[17] = tested on: Veronica persica; assay: Test Example 5: herbicidal effect by foliage application, plastic box (symbol R); details: 320 g/ha, 3 weeks after application
Summary of the method: as §1

[18] = tested on: Alopecurus myosuroides; assay: Test Example 4: herbicidal effect by soil treatment (symbol J); details: 320 g/ha
Summary of the method: as §4

[19] = tested on: Stellaria media; assay: Test Example 4: herbicidal effect by soil treatment (symbol P); details: 320 g/ha
Summary of the method: as §4

[20] = tested on: Lolium multiflorum Lam.; assay: Test Example 4: herbicidal effect by soil treatment (symbol K); details: 320 g/ha
Summary of the method: as §4

[21] = tested on: Abutilon theophrasti; assay: Test Example 5: herbicidal effect by foliage application, plastic box (symbol M); details: 320 g/ha, 3 weeks after application
Summary of the method: as §1

[22] = tested on: Galium spurium; assay: Test Example 4: herbicidal effect by soil treatment (symbol Q); details: 320 g/ha
Summary of the method: as §4

[23] = tested on: wheat; assay: Test Example 5: effect on crop by foliage application, plastic box (symbol e); details: 320 g/ha, 3 weeks after application
Summary of the method: as §2

[24] = tested on: Digitaria ciliaris; assay: Test Example 4: herbicidal effect by soil treatment (symbol F); details: 320 g/ha
Summary of the method: as §4

[25] = tested on: directly sowed rice plant; assay: Test Example 3: effect on crop by foliage application, Wagner pot (symbol b); details: application herbicide amount 320 g/ha
Summary of the method: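 Steps: fill a 1/10000-are Wagner pot with alluvial soil; add water and mix to submerge at 0.1–0.5 cm depth; sow rice plus Echinochloa crus-galli var. crus-galli, Leptochloa chinensis and Cyperus difformis; grow in a 25–30 °C greenhouse.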

SMILES | P: Stellaria media, herbicidal effect (criteria 0-5) [1] | Q: Galium spurium, herbicidal effect (criteria 0-5) [2] | f: beet, effect on crop (criteria 0-5) [3] | b: directly sowed rice plant, effect grade on crop [4] | b: directly sowed rice plant, effect on crop (criteria 0-5) [5] | c: corn, effect grade on crop [6] | d: soybean, effect grade on crop [7] | R: Veronica persica, herbicidal effect grade [8] | I: Avena fatua, herbicidal effect (criteria 0-5) [9] | H: Echinochloa crus-galli var. crus-galli, herbicidal effect grade [10] | f: beet, effect grade on crop [12] | F: Digitaria ciliaris, herbicidal effect (criteria 0-5) [13] | g: rapeseed, effect grade on crop [14] | L: Apera spica-venti, herbicidal effect (criteria 0-5) [15] | G: Setaria viridis, herbicidal effect (criteria 0-5) [16] | R: Veronica persica, herbicidal effect (criteria 0-5) [17] | J: Alopecurus myosuroides, herbicidal effect grade [18] | P: Stellaria media, herbicidal effect grade [19] | K: Lolium multiflorum Lam., herbicidal effect grade [20] | M: Abutilon theophrasti, herbicidal effect (criteria 0-5) [21] | further results
CC(CC1CC(O)=C(c2c(C)cc(C)cc2C)C1=O)=NOCc1ccccc1Cl (stereo not drawn) [1-113] | 3 (Herbicidal ratio of 40% or higher and lower than 70%) | 0 (Herbicidal ratio of 5% or lower (almost no effect)) | 0 (Herbicidal ratio of 5% or lower (almost no effect)) | 2 (Herbicidal ratio of 20% or higher and lower than 40%) | 4 (Herbicidal ratio of 70% or higher and lower than 90%) | 0 (Herbicidal ratio of 5% or lower (almost no effect)) | 0 (Herbicidal ratio of 5% or lower (almost no effect)) | 0 (Herbicidal ratio of 5% or lower (almost no effect)) | 4 (Herbicidal ratio of 70% or higher and lower than 90%) | 0 (Herbicidal ratio of 5% or lower (almost no effect)) | 0 (Herbicidal ratio of 5% or lower (almost no effect)) | 5 (Herbicidal ratio of 90% or more (almost completely withered)) | 0 (Herbicidal ratio of 5% or lower (almost no effect)) | 5 (Herbicidal ratio of 90% or more (almost completely withered)) | 4 (Herbicidal ratio of 70% or higher and lower than 90%) | 4 (Herbicidal ratio of 70% or higher and lower than 90%) | 3 (Herbicidal ratio of 40% or higher and lower than 70%) | 0 (Herbicidal ratio of 5% or lower (almost no effect)) | 5 (Herbicidal ratio of 90% or more (almost completely withered)) | 1 (Herbicidal ratio of 5% or higher and lower than 20%) | O: Chenopodium album, herbicidal effect (criteria 0-5) [11]: 2 (Herbicidal ratio of 20% or higher and lower than 40%); Q: Galium spurium, herbicidal effect grade [22]: 0 (Herbicidal ratio of 5% or lower (almost no effect)); e: wheat, effect on crop (criteria 0-5) [23]: 3 (Herbicidal ratio of 40% or higher and lower than 70%); F: Digitaria ciliaris, herbicidal effect grade [24]: 1 (Herbicidal ratio of 5% or higher and lower than 20%)
CON=C(C)CC1CC(OC(=O)N(C)CCCCCl)=C(c2c(C)cc(C)cc2C)C1=O (stereo not drawn) [1-126] | 0 (Herbicidal ratio of 5% or lower (almost no effect)) | 0 (Herbicidal ratio of 5% or lower (almost no effect)) | 0 (Herbicidal ratio of 5% or lower (almost no effect)) | 0 (Herbicidal ratio of 5% or lower (almost no effect)) | 4 (Herbicidal ratio of 70% or higher and lower than 90%) | 0 (Herbicidal ratio of 5% or lower (almost no effect)) | 0 (Herbicidal ratio of 5% or lower (almost no effect)) | 0 (Herbicidal ratio of 5% or lower (almost no effect)) | 3 (Herbicidal ratio of 40% or higher and lower than 70%) | 0 (Herbicidal ratio of 5% or lower (almost no effect)) | 0 (Herbicidal ratio of 5% or lower (almost no effect)) | 3 (Herbicidal ratio of 40% or higher and lower than 70%) | 0 (Herbicidal ratio of 5% or lower (almost no effect)) | 3 (Herbicidal ratio of 40% or higher and lower than 70%) | 4 (Herbicidal ratio of 70% or higher and lower than 90%) | 0 (Herbicidal ratio of 5% or lower (almost no effect)) | 3 (Herbicidal ratio of 40% or higher and lower than 70%) | 0 (Herbicidal ratio of 5% or lower (almost no effect)) | 4 (Herbicidal ratio of 70% or higher and lower than 90%) | 0 (Herbicidal ratio of 5% or lower (almost no effect)) | Q: Galium spurium, herbicidal effect grade [22]: 0 (Herbicidal ratio of 5% or lower (almost no effect)); e: wheat, effect on crop (criteria 0-5) [23]: 0 (Herbicidal ratio of 5% or lower (almost no effect)); effect on crop b (directly sowed rice plant), grade 0-5 [25]: 5 (Herbicidal ratio of 90% or more (almost completely withered)); F: Digitaria ciliaris, herbicidal effect grade [24]: 0 (Herbicidal ratio of 5% or lower (almost no effect))
C=C(C)CN(CC)C(=O)OC1=C(c2c(C)cc(C)cc2C)C(=O)C(CC(C)=NOC)C1 (stereo not drawn) [1-130] | 0 (Herbicidal ratio of 5% or lower (almost no effect)) | 0 (Herbicidal ratio of 5% or lower (almost no effect)) | 0 (Herbicidal ratio of 5% or lower (almost no effect)) | 0 (Herbicidal ratio of 5% or lower (almost no effect)) | 5 (Herbicidal ratio of 90% or more (almost completely withered)) | 0 (Herbicidal ratio of 5% or lower (almost no effect)) | 0 (Herbicidal ratio of 5% or lower (almost no effect)) | 0 (Herbicidal ratio of 5% or lower (almost no effect)) | 5 (Herbicidal ratio of 90% or more (almost completely withered)) | 0 (Herbicidal ratio of 5% or lower (almost no effect)) | 0 (Herbicidal ratio of 5% or lower (almost no effect)) | 4 (Herbicidal ratio of 70% or higher and lower than 90%) | 0 (Herbicidal ratio of 5% or lower (almost no effect)) | 5 (Herbicidal ratio of 90% or more (almost completely withered)) | 5 (Herbicidal ratio of 90% or more (almost completely withered)) | 0 (Herbicidal ratio of 5% or lower (almost no effect)) | 3 (Herbicidal ratio of 40% or higher and lower than 70%) | 0 (Herbicidal ratio of 5% or lower (almost no effect)) | 3 (Herbicidal ratio of 40% or higher and lower than 70%) | 0 (Herbicidal ratio of 5% or lower (almost no effect)) | Q: Galium spurium, herbicidal effect grade [22]: 0 (Herbicidal ratio of 5% or lower (almost no effect)); e: wheat, effect on crop (criteria 0-5) [23]: 2 (Herbicidal ratio of 20% or higher and lower than 40%); effect on crop b (directly sowed rice plant), grade 0-5 [25]: 5 (Herbicidal ratio of 90% or more (almost completely withered)); F: Digitaria ciliaris, herbicidal effect grade [24]: 0 (Herbicidal ratio of 5% or lower (almost no effect))
